One experiment addresses NR1/NR2D (NR1100) (Rattus norvegicus, UniProt P35439+Q62645). Nature of the experiment: cell-based.
In experiment [1] the test system is NMDA receptor (chick spinal cord neurons). The conditions noted are these: Park-Chung et al. 1997; cited from earlier work.
The target of a further experiment is T1, wild-type NR1a/NR2A (Rattus norvegicus, UniProt P35439+Q00959).
T1 construct: expressed in transfected cells; host or cells: Xenopus laevis oocytes injected with in vitro transcribed mRNA
Nature of the experiment: NMDA-induced currents, Xenopus oocytes, Example 5. It counts as cell-based. The conditions noted are these: 100 uM steroid, 300 uM NMDA, 50 uM Glycine.

Another experiment addresses NR1/NR2C (NR1100) (Rattus norvegicus, UniProt P35439+Q00961). The experiment in a line: cell-based.
In experiment [2] the target is T2, NR1011/NR2B-D chimera(IV) (Rattus norvegicus, UniProt P35439+Q62645, A747T/A861I/D811G/D828E/DEL874-885/E739D/E740D/F807L/G793D/G854A/H791Q/I800V/I813M/I830N/INS886[…]/K766R/K836Q/L790I/L804I/L808F/L850G/L858I/L870F/M815E/M890I/P736R/P799Q/Q744S/R732K/R737G/R765G/R795G/R818A/R869Q/S728A/S822T/T743L/T783S/V731G/V851A/V859T/V866F/W862C/Y733F).
T2 construct: expressed in transfected cells; host or cells: Xenopus oocytes
The experiment in a line: NR2 chimera study, Xenopus oocytes, Example 7. The format is cell-based. The note with it: 100 μM PS; 300 μM NMDA; 50 μM Glycine. The source says: In the fourth chimera receptor, NR2B-DChimera (IV), the residues 727 to 892 were replaced on NR2D with residues 703 to 870 of NR2B, which contains the second extracellular domain, the fourth hydrophobic transmembrane domain and 31 residues from the C-terminal intracellular tail.
(§1) The chimeric receptors were generated by first introducing a series of silent restriction sites in both the NR2B and NR2D cDNA. The chimeric cDNAs were then constructed by replacing corresponding regions of one cDNA with that of the other. The silence site mutations were generated by a method involving PCR. […] This cassette was then ligated into the cDNA cut with the same two restriction enzymes.

The target of a further experiment is T3, NR1011/NR2Dwt (Rattus norvegicus, UniProt P35439+Q62645).
T3 construct: expressed in transfected cells; host or cells: Xenopus oocytes
Nature of the experiment: NR2 chimera study, Xenopus oocytes, Example 7. The format is cell-based. The note with it: 100 μM PS; 300 μM NMDA; 50 μM Glycine.
From the text: as §1

The next experiment concerns the target T4, NR1011/NR2Bwt (Rattus norvegicus, UniProt P35439+Q00960).
T4 construct: expressed in transfected cells; host or cells: Xenopus oocytes
Nature of the experiment: NR2 chimera study, Xenopus oocytes, Example 7. It counts as cell-based. The note with it: 100 μM PS; 300 μM NMDA; 50 μM Glycine.
From the text: as §1

Experiment [3] addresses T5, NR1011/NR2B-D Chimera (III) (Rattus norvegicus, UniProt P35439+Q00960, A556P/A573T/A605S/A700P/A704S/A794R/A827V/A830G/C588S/C838W/D557A/D591T/D676E/D715E/D716E/D769G/DEL851-864/E594R/E701D/E791M/E804D/F554Y/F580L/F677Q/F681L/F709Y/F784L/F842V/F846L/G611A/G707V/G713R/G741R/G771R/G787D/G826L/I530V/I568T/I766L/I780L/I834L/I837A/I868M/INS849[…]/K624R/K669R/K708R/L566C/L719T/L783F/M789I/N675Q/N697S/N806I/P598S/Q621E/Q662T/Q767H/Q775P/Q812K/Q845R/R593K/R682K/R693K/R712P/R742K/S539A/S570V/S599T/S633L/S678Y/S720Q/S759T/T723A/T798S/T835V/V576I/V776I).
T5 construct: expressed in transfected cells; host or cells: Xenopus oocytes
The experiment in a line: NR2 chimera study, Xenopus oocytes, Example 7. The format is cell-based. The note with it: 100 μM PS; 300 μM NMDA; 50 μM Glycine.
From the text: (§2) To produce the first subunit, 96% of the cytoplasmic COOH-terminal region of the NR2B subunit (residues 870 to 1482) were replaced with the corresponding region of the NR2D subunit (residues 892 to 1323).
as §1

Another experiment concerns the target T6, NR1011/NR2B-D Chimera(I) (Rattus norvegicus, UniProt P35439+Q00960+Q62645).
T6 construct: expressed in transfected cells; host or cells: Xenopus oocytes
Nature of the experiment: NR2 chimera study, Xenopus oocytes, Example 7. The format is cell-based. The note with it: 100 μM PS; 300 μM NMDA; 50 μM Glycine.
From the text: as §2, §1

In experiment [4] the target is T7, NR1011/NR2B-D Chimera(II) (Rattus norvegicus, UniProt P35439+Q00960+Q62645, A556P/A573T/A605S/A700P/A704S/A794R/A827V/A830G/C588S/C838W/D557A/D591T/D676E/D715E/D716E/D769G/E594R/E701D/E791M/E804D/F554Y/F580L/F677Q/F681L/F709Y/F784L/F842V/F846L/G611A/G707V/G713R/G741R/G771R/G787D/G826L/I530V/I568T/I766L/I780L/I834L/I837A/K624R/K669R/K708R/L566C/L719T/L783F/M789I/N675Q/N697S/N806I/P598S/Q621E/Q662T/Q767H/Q775P/Q812K/Q845R/R593K/R682K/R693K/R712P/R742K/S539A/S570V/S599T/S633L/S678Y/S720Q/S759T/T723A/T798S/T835V/V576I/V776I).
T7 construct: expressed in transfected cells; host or cells: Xenopus oocytes
Nature of the experiment: NR2 chimera study, Xenopus oocytes, Example 7. It counts as cell-based. The note with it: 100 μM PS; 300 μM NMDA; 50 μM Glycine.
From the text: as §2, §1

A further experiment deals with T8, NR1/NR2C (Rattus norvegicus, UniProt P35439+Q00961).
T8 construct: expressed in transfected cells; host or cells: Xenopus oocytes injected with mRNA
The experiment in a line: NMDA-induced membrane currents, Xenopus oocytes, Example 7. The format is cell-based.

The target in a further experiment is T9, NR1101/NR2B (Rattus norvegicus, UniProt P35439+Q00960).
T9 construct: expressed in transfected cells; host or cells: Xenopus oocytes
Nature of the experiment: NMDA receptor currents in Ba-Ringer, Xenopus oocytes, Example 3. It counts as cell-based.

Another experiment deals with T10, NR1/NR2D (Rattus norvegicus, UniProt P35439+Q62645).
T10 construct: expressed in transfected cells; host or cells: Xenopus oocytes injected with mRNA
The experiment in a line: NMDA-induced membrane currents, Xenopus oocytes, Example 7. It counts as cell-based.

[5] abbreviates: read-out: 3α5βS Emax (% Change).

Values joined by “and” are separate entries in the source; they are usually repeats but may differ in a detail not shown here. Identical values can stand only once. Counter-ions that a name gives are not always drawn.

T8 sequence (Q00961 20-1237, other chains not shown): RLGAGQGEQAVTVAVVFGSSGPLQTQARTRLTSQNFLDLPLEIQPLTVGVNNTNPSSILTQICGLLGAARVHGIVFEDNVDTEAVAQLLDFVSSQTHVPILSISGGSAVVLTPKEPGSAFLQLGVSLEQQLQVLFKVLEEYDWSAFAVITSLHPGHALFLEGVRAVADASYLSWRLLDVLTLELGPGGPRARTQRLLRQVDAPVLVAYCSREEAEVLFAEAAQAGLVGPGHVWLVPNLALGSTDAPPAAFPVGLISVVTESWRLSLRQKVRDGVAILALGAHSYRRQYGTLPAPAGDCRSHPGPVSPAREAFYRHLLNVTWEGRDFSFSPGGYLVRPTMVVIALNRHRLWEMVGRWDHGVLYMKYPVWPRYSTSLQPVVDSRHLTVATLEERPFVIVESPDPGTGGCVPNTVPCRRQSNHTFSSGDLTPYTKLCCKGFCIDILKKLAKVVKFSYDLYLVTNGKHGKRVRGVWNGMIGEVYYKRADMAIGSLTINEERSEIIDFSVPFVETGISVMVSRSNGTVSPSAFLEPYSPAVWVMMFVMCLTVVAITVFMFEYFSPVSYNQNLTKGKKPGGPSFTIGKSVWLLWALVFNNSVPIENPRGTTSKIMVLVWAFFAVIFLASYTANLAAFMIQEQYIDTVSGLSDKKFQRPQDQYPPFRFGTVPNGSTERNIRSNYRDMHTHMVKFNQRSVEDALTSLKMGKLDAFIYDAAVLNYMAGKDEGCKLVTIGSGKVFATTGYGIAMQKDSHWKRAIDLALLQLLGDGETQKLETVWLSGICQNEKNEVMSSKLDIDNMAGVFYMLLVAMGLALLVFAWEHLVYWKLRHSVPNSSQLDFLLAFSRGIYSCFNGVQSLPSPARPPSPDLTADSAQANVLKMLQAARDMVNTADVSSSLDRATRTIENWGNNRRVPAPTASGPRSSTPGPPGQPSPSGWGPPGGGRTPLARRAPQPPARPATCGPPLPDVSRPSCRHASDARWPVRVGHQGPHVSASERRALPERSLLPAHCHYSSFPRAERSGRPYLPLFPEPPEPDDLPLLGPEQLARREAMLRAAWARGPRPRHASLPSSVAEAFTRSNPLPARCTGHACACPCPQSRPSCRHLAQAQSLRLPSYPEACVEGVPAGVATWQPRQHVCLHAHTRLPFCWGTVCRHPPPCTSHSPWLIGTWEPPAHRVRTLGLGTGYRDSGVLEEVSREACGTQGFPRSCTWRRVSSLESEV
Sequence of NR1/NR2C (NR1100) (Q00961 20-1237, other chains not shown): as above
T2 sequence (Q62645 with tags, fused parts or gaps with the stated changes, other chains not shown): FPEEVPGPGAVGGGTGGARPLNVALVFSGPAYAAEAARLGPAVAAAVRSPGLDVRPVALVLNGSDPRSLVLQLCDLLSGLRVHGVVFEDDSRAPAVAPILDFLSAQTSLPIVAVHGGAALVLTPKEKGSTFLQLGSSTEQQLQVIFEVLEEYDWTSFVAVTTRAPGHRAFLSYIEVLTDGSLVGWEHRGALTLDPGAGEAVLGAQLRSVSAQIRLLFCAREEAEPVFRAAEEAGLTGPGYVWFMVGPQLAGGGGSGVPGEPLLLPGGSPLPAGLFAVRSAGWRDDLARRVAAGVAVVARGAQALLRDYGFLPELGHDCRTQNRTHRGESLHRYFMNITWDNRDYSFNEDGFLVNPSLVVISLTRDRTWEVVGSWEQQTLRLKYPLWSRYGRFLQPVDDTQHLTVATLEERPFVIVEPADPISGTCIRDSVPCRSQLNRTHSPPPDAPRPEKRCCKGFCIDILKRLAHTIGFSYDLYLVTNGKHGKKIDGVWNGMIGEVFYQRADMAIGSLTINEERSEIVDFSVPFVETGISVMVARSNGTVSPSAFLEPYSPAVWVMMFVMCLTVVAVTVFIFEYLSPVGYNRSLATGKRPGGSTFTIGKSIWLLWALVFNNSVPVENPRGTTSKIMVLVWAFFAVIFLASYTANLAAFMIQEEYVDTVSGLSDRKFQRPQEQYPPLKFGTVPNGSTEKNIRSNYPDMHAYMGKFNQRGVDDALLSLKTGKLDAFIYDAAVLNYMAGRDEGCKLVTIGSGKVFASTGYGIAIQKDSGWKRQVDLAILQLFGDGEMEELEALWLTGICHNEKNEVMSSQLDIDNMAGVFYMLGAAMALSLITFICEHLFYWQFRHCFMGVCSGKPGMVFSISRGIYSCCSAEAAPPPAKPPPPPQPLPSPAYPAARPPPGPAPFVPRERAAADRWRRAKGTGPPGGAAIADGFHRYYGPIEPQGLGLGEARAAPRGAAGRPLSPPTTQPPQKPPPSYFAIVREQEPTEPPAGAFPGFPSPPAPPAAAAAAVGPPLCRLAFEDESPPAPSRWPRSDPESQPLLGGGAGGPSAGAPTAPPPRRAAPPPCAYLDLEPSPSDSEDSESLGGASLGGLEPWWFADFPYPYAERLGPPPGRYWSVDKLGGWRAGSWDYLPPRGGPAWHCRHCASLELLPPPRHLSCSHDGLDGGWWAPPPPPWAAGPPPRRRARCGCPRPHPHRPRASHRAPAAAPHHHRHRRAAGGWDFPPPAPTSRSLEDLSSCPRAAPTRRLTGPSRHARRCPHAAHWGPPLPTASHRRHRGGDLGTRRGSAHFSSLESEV
Sequence of NR1/NR2D (NR1100) (Q62645 28-1323, other chains not shown): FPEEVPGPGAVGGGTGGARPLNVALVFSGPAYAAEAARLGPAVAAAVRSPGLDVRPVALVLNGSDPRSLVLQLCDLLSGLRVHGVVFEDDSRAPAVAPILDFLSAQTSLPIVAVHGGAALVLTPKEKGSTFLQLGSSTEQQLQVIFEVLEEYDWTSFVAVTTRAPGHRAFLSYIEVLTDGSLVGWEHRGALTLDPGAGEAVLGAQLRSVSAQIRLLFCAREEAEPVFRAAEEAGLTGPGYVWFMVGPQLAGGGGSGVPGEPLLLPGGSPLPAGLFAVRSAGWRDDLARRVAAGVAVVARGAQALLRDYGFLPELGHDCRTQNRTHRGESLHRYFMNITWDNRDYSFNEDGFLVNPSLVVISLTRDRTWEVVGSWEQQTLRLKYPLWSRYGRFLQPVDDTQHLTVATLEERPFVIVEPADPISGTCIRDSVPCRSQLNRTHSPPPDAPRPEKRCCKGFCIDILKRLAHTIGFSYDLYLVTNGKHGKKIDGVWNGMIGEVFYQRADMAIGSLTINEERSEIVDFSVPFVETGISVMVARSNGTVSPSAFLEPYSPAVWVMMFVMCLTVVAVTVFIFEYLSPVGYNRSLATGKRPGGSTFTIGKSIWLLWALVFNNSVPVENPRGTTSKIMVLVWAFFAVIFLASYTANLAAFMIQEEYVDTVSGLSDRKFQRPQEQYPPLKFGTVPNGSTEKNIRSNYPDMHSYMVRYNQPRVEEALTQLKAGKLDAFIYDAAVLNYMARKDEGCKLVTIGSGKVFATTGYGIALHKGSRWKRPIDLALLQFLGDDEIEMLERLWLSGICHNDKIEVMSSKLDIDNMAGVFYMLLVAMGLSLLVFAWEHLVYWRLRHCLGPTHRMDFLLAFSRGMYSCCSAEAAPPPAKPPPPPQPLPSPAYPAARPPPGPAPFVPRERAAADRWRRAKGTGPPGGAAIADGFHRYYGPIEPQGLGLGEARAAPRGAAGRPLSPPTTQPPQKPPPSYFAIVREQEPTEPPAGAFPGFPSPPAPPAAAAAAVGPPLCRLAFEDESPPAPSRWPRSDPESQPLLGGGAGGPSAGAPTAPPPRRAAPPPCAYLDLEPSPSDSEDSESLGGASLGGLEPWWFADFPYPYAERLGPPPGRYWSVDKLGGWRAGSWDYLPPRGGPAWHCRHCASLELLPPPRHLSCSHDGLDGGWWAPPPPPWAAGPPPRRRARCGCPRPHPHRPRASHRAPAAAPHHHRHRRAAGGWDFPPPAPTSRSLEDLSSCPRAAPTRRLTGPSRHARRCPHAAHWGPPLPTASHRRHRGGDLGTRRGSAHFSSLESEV
T10 sequence (Q62645 28-1323, other chains not shown): as above
T3 sequence (Q62645 28-1323, other chains not shown): as above
From the text for NR1/NR2D (NR1100): Plasmids containing the NR1100 (NR1G) and NR2A cDNA inserts were kindly provided by Dr. Nakanishi (Kyoto University Faculty of Medicine, Kyoto, Japan). Plasmids containing the NR2B, NR2C and NR2D cDNA inserts were kindly provided by Dr. P. Seeburg (Heidelberg University, Heidelberg, Germany). Plasmids were linearized with appropriate restriction enzyme prior to in vitro transcription using the Message Machine kit (Ambion, Inc., Austin, Tex.).
Female, oocyte-positive Xenopus laevis frogs were purchased from Xenopus I (Dexter, Mich.). […] Oocytes were injected with 50 nL of RNA solutions using an electronic microinjector (Drummond Inc., Broomall, Pa.). […] The injected oocytes were used for experiments following 1-5 days of incubation in Barth's solution at 18-20° C.
The microelectrodes were fabricated from borosilicate glass capillaries with a programmed puller (Sutter Instrument Co., Calif.). Microelectrode resistance was 1-3 MΩ_when filled with 3 M KCl.
Except where otherwise stated, oocytes were clamped at a holding potential of −70 mV during data acquisition. The membrane current was filtered at 500 Hz and sampled at 100 Hz. Drugs were applied using a gravity-driven external perfusion system. The working volume of the recording chamber was 30 μl and the rate of the perfusion was 50 μl/sec. The drug application lasted 10 sec and was followed by 60 s wash. Data acquisition and external perfusion were controlled using custom-written software implemented in the SuperScope II development environment (GW Instruments, Mass.). All experiments were performed at room temperature of 22-24° C. Peak or steady-state current measurements were normalized and expressed as a fraction of the peak or steady-state control current measurements, which were performed before and after application of every single concentration of agonists or steroids.
Concentration-response data were analyzed by nonlinear regress ion using the logistic equation Response=Emax/(1+(EC50/c)^nH), where c is concentration, Emaxis the maximum response, nHis the Hill coefficient. The data are presented as mean±SEM. EC50values are averaged as logarithms (De Lean et al., Am. J. Physiol. 235: E97-E102 (1978))±the SEM of the log EC50. […] The pooled data were simultaneously fitted to the logistic equation, either with Emax and EC50 constrained to be identical in the presence and absence of PS, or allowing one or both to vary independently. […] This was regarded as indicating a significant treatment effect of PS, but the change in EC50and Emaxwas not considered significant. […] No attempt was made to test the generally small changes in nHfor statistical significance.
Experimental for wild-type NR1a/NR2A: Plasmids were linearized with appropriate restriction enzyme prior to in vitro transcription using the Message Machine kit (Ambion, Inc., Austin, Tex.).
Female, oocyte positive Xenopus laevis frogs were purchased from Xenopus I (Dexter, Mich). […] Oocytes were injected with 50 nL of RNA solutions using an electronic microinjector (Drummond Inc., Broomall, Pa.). […] The injected oocytes were used for experiments following 1-5 days of incubation in Barth's solution at 18-20° C.
The microelectrodes were fabricated with a programmed puller (Sutter Instrument Co., Calif.) from borosilicate glass capillaries and were filled with 3 M KCl solution. The resistance of filled microelectrodes was in the range of 1-3 MΩ. […] If not mentioned otherwise, during data acquisition oocytes were clamped at a holding potential of −70 mV. The membrane current was filtered at 500 Hz and sampled at 100 Hz. Drugs were applied using a gravity driven external perfusion system. The working ,volume of the recording chamber was 30 μl and the rate of the perfusion was 50 μl/sec. The drug application lasted 10 sec and was followed by a 60 sec wash. The data acquisition and external perfusion control were done using the SuperScopeII software package (GW Instruments, Mass.). All experiments were performed at room temperature (22-24° C.). […] The data are presented as mean±S.E.M. with number of experiments in parentheses.

Broadly, the EC50 is the concentration giving half of the maximal effect. Low readings indicate higher potency in that assay, high ones lower potency in that assay. Broadly, the Emax is the maximal effect, on the per cent scale that the assay sets. Regarding `CC(=O)[C@H]1CC[C@H]2[C@@H]3CC[C@@H]4C[C@H](OS(=O)(=O)O)CC[C@]4(C)[C@H]3CC[C@]12C` [3α5βS, 3α5β-pregnanolone sulfate], the EC50 turned out to be 14 µM on NR1/NR2D (NR1100) and 12 µM on NR1/NR2C (NR1100). For the same compound, the Emax is -98 ± 7% at NR1/NR2D (NR1100) (setting [5]) and -99 ± 2% at NR1/NR2C (NR1100) (setting [5]). The “modulation of NMDA-induced current” value in [1] is “strong inhibitors”. Moreover, the “percent decrease in maximum inward current” value at wild-type NR1a/NR2A was 45.49±5.76%.

Regarding pregnenolone sulfate [PS], the “potentiation of inward current” value in [2] was 66.05±2.75% and 66.05±2.76%; at NR1011/NR2Bwt, 78.36±7.89%; on NR1011/NR2B-D Chimera(I), 52.69±3.58%. For the same compound, the results for the “inhibition of inward current” value (against NR1011/NR2Dwt; in experiment [3]; in experiment [4]) were 45.18±2.62%, 36.74±6.54% and 43.04±5.44%, respectively. Further, the “inhibition of NMDA-induced membrane currents” value at NR1/NR2C (100 μM PS, […] μM NMDA, 10 μM glycine) was 32±3%; against NR1/NR2D (100 μM PS, 10 μM NMDA, 10 μM glycine), 29±2%. Moreover, the maximum inhibition at NR1/NR2C (PS 0.5 to 200 μM) is 63±9%; at NR1/NR2D (PS 0.5 to 200 μM), 70±6%. The “PS Emax” value on NR1101/NR2B is recorded as 1.03 ± 0.02. Also, on NR1101/NR2B, the “PS nHill” value is given as 1.63 ± 0.29.

These data come from patent US6623933B1 (priority 1999, dated 2003).
